Laboratory results published in article PMC3095715 (Chemical biology & drug design, 2011).

Biological target: human C3 (Homo sapiens, UniProt P01024)
Experiment: Surface plasmon resonance
Assay type: binding
Details: SPR

Chain of human C3 (P01024 23-1663): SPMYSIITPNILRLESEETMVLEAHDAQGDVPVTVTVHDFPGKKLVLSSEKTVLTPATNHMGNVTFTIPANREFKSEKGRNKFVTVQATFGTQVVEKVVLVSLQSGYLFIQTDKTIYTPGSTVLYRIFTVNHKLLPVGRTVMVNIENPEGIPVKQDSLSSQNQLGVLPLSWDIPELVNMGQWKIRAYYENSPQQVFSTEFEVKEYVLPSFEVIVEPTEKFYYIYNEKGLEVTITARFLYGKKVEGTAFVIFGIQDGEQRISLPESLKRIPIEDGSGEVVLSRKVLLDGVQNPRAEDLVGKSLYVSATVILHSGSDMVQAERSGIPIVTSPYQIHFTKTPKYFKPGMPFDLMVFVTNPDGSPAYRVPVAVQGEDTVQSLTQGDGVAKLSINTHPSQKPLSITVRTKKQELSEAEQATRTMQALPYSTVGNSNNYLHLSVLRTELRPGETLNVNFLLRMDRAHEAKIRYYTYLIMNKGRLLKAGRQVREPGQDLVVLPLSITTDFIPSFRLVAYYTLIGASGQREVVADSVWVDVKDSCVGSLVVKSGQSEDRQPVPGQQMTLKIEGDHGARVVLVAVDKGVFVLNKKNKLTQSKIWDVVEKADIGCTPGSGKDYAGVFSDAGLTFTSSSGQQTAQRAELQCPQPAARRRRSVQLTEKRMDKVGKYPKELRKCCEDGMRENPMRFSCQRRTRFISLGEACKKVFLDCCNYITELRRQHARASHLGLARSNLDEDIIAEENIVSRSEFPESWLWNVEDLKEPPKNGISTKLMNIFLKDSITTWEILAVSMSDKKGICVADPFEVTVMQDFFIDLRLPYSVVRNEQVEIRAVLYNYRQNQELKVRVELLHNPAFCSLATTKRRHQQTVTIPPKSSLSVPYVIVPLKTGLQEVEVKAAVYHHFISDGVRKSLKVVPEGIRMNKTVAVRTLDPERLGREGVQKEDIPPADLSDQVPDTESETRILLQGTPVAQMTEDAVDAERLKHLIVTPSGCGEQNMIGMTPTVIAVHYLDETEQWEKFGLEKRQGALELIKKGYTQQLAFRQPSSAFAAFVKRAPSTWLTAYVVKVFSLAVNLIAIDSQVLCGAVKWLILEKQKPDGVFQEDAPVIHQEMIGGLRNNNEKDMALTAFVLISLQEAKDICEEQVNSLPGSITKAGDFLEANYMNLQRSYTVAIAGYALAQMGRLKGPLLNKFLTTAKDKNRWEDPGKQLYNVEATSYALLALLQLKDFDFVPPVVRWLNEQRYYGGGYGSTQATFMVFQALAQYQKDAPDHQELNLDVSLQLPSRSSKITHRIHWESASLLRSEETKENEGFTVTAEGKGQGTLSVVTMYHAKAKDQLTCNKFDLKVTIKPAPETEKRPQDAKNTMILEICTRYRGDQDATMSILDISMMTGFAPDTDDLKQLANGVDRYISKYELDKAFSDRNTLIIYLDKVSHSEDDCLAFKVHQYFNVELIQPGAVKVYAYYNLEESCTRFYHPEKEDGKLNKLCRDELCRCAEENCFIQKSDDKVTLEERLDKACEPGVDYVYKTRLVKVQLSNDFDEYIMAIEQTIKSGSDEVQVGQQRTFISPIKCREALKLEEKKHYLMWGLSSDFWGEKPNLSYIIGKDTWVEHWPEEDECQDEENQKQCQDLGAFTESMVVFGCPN

Question: How did the “Binding to C3 (result in words)” value turn out when “Ac-W[CVWQDWGAWRC]W-(PEG)8-K-(biotin)-NH2 (disulfide) [Peptide X]” was run?
Answer: not to bind to C3
